Bridge positions count the residues as written; N and C are the ends. Square brackets hold non-standard residues; d marks the D form. Peptide text beside a SMILES is read from it. NMeF = CN[C@@H](Cc1ccccc1)C(=O)O; Sar = CNCC(=O)O
How the values were obtained:
[1] = Stability in human serum assessed as half-life incubated for 22 to 24 hrs by LC-MS/MS method; type: ADME, cell-free; conditions: time 22-24 hrs
[2] = target: T1, High affinity nerve growth factor receptor (Homo sapiens, UniProt P04629); assay: Binding affinity to Fc-tagged human TrkA extracellular domain by SPR method
T1 sequence (P04629 whole entry, the tested form may be a part): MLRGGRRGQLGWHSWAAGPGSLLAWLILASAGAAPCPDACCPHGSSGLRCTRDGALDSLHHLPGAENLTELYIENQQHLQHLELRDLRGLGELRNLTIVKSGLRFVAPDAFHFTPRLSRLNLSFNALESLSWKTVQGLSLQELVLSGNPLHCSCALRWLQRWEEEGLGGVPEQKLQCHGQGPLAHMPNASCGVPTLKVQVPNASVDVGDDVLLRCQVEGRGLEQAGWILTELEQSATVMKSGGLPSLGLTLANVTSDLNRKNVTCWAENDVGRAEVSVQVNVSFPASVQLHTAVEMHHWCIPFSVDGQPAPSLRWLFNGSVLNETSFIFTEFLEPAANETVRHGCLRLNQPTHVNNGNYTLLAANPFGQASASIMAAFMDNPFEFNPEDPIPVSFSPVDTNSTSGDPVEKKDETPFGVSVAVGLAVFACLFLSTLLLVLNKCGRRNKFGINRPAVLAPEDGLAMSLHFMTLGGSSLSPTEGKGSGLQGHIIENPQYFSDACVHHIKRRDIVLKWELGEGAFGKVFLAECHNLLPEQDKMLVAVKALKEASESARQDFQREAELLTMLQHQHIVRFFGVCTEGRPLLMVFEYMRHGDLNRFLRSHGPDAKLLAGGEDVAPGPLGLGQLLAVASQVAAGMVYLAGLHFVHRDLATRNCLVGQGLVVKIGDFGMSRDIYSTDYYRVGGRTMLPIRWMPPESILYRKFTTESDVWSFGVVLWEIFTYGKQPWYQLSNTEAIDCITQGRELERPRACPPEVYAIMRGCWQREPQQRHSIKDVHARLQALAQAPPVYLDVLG

[3] = Inhibition of Fc-tagged human TrkA extracellular domain to biotinylated human NGF protein-protein interaction preincubated for 1 hr followed by NGF addition and measured after 3 hrs by ELISA
[4] = target: T1, High affinity nerve growth factor receptor; assay: Inhibition of human TrkA assessed as beta-galactosidase activity pretreated with NGF followed by […] and measured after 180 mins by pathhunter assay
[5] = Stability in rat serum assessed as half-life incubated for 22 to 24 hrs by LC-MS/MS method; type: ADME, cell-free; conditions: time 22-24 hrs
[6] = Total clearance in Sprague-Dawley rat at 1 umol/kg, iv administered as cassette dose measured upto 6 hrs by LC-MS/MS method; type: ADME, organism-based; conditions: in vivo, dose 1 µmol/kg
Rattus norvegicus [7] = assay: Analgesic activity in iv dosed rat Brennan's incision pain model assessed as reduction in pain administered 3 times at every 2 hrs and measured after 6 hrs; type: functional, organism-based; conditions: dose 3-30 mg/kg
Rattus norvegicus [8] = assay: Analgesic activity in rat Brennan's incision pain model assessed as reduction in pain at 10 mg/kg, iv administered 3 times at every 2 hrs and measured after 6 hrs; type: functional, organism-based
[9] = AUC in Sprague-Dawley rat at 1 umol/kg, iv administered as cassette dose measured upto 6 hrs by LC-MS/MS method; type: ADME, organism-based; conditions: in vivo, dose 1 µmol/kg
Rattus norvegicus [10] = assay: Analgesic activity in rat Brennan's incision pain model assessed as reduction in pain at 30 mg/kg, iv administered 3 times at every 2 hrs and measured after 6 hrs; type: functional; set-up: scale not given: the % may be the effect or the level left
[11] = Toxicity in rat at 30 mg/kg, iv administered 3 times at every 2 hrs and measured after 6 hrs; type: organism-based; conditions: in vivo
[12] = Stability in human serum assessed as compound degradation incubated for 22 hrs by LC-MS/MS method; type: ADME, cell-free

Kd [2] [nM] | IC50 [3] [nM] | IC50 [4] [nM] | half-life [5] [h] | Stability [12] | Compound | half-life [1] [h] | clearance [6] [mL/min/kg] | Activity (Rattus norvegicus [7]) | Activity (Rattus norvegicus [8]) | AUC at 6 h [9] [µM·h] | Activity (Rattus norvegicus [10]) [%] | Activity [11]
15.9 | 10.8 | 425 | 47.8 |  | CC(C)C[C@@H]1NC(=O)[C@H](CC(N)=O)NC(=O)CNC(=O)[C@H](Cc2ccccc2)N(C)C(=O)CNC(=O)[C@H](Cc2c[nH]c3ccccc23)NC(=O)[C@H](Cc2ccc(O)cc2)NC(=O)[C@H](CO)NC(=O)[C@H](C(C)C)NC(=O)[C@H](CO)NC(=O)[C@H](CO)NC(=O)[C@H](Cc2ccccc2)NC(=O)CSC[C@@H](C(=O)NCC(N)=O)NC(=O)[C@H](Cc2c[nH]cn2)NC(=O)[C@H](CO)NC(=O)[C@H](Cc2ccc(O)cc2)NC(=O)[C@H](Cc2c[nH]c3ccccc23)NC(=O)[C@H](C(C)C)NC1=O ({CH2CO}-FSSVSYWG[NMeF]GNLVWYSHCG-NH2; thioether N-18) | 9.3 |  |  |  |  |  | 
 |  | 23 | 11.3 | Unstable | CC(C)C[C@@H]1NC(=O)[C@H](CCCNC(=N)N)NC(=O)CNC(=O)[C@H](Cc2ccccc2)N(C)C(=O)CNC(=O)[C@H](Cc2c[nH]c3ccccc23)NC(=O)[C@H](Cc2ccc(O)cc2)NC(=O)[C@H](CO)NC(=O)[C@H](C(C)C)NC(=O)[C@H](CO)NC(=O)[C@H](CCCCN)NC(=O)[C@H](Cc2ccccc2)NC(=O)CSC[C@@H](C(=O)N(C)CC(N)=O)NC(=O)[C@H](Cc2c[nH]cn2)NC(=O)[C@H](CC(N)=O)NC(=O)[C@H](Cc2ccc(O)cc2)NC(=O)[C@H](Cc2ccc(O)cc2)NC(=O)[C@H](CO)NC1=O ({CH2CO}-FKSVSYWG[NMeF]GRLSYYNHC[Sar]-NH2; thioether N-18) |  | 66.2 |  |  | 0.305 |  | 

Compound | Kd [2] [nM] | IC50 [3] [nM] | IC50 [4] [nM] | half-life [5] [h] | Stability [12] | half-life [1] [h] | clearance [6] [mL/min/kg] | Activity (Rattus norvegicus [7]) | Activity (Rattus norvegicus [8]) | AUC at 6 h [9] [µM·h] | Activity (Rattus norvegicus [10]) [%] | Activity [11]
CC(C)C[C@@H]1NC(=O)[C@H](C(C)C)NC(=O)CNC(=O)[C@H](Cc2ccccc2)N(C)C(=O)CNC(=O)[C@H](Cc2c[nH]cn2)NC(=O)[C@H](Cc2ccc(O)cc2)NC(=O)[C@H](CCC(=O)O)NC(=O)[C@H](C(C)C)NC(=O)[C@H](CO)NC(=O)[C@H](CO)NC(=O)[C@H](Cc2ccccc2)NC(=O)CSC[C@@H](C(=O)NCC(N)=O)NC(=O)[C@H](Cc2c[nH]cn2)NC(=O)[C@H](CC(=O)O)NC(=O)[C@H](Cc2ccc(O)cc2)NC(=O)[C@H](Cc2c[nH]c3ccccc23)NC(=O)[C@H](C(C)C)NC1=O ({CH2CO}-FSSVEYHG[NMeF]GVLVWYDHCG-NH2; thioether N-18) |  |  | 21 | > 72 |  | > 72 | 13.9 | Dose-dependent-effect | Active; Activity Comparable To 1 Mg/Kg Morphine | 1.2 | 40 | Non-toxic
